Assay [1] concerns the target T1, phosphor-EGFR in H1975(L585R/T790M) mutant EGFR expressing cells (Homo sapiens, UniProt P00533, L858R/T790M).
T1 construct: host or cells: NCI-H1975
In words: H1975 pEGFR MSD cellular assay. It is filed as cell-based. The following applies: NCI-H1975 cells, serum starved, 1 hour compound incubation, pEGFR Tyr1068 MSD; read-out: HI975 pEGFR EC50. The method, boiled down: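 Phospho-EGFR read by MSD electrochemiluminescence: capture with anti-pEGFR antibody (overnight, 4° C), detection with SULFO-TAG anti-total EGFR (1 hour, room temperature). Before lysis, H1975 cells starved of serum overnight got compound for 1 hour at 37° C, 0.5% DMSO final. EC50 via four-parameter logistic regression of percent inhibition.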

For the next assay, the target named is T2, EGFR T790M L858R (Homo sapiens, UniProt P00533, L858R/T790M).
T2 construct: purchased Life Technologies PV4879
In words: EGFR T790M L858R biochemical assay (Caliper mobility shift). The following applies: 5 μM ATP; apparent Ki (Morrison fit) converted by Cheng-Prusoff, Km of ATP 1.3 μM. The method, boiled down: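 Caliper mobility-shift read-out, electrophoretic separation of substrate from product, after a 30-minute kinase reaction at 22 °C. EDTA at 80 mM terminates each reaction.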

Assay [2] concerns H1975 (EGFR T790M/L858R) cell proliferation. In words: H1975 proliferation assay (Cell Titer-Glo). The format is cell-based. The following applies: Homo sapiens, NCI-H1975, 72 h, NCI-H1975 cells, 72 hour incubation, read-out: H1975 antiproliferative EC50. How it is done:
H1975 Proliferation Assays
All cell culture reagents were purchased from Invitrogen/Gibco. Cells are cultured at 37° C. at 5% CO2 and split as recommended by ATCC.

The target of the next assay is T3, EGFR del746-750 T790M (Homo sapiens, UniProt P00533, DEL746-750/T790M).
T3 construct: purchased Carna Biosciences 08-528
In words: EGFR del746-750 T790M biochemical assay (Caliper mobility shift). The following applies: 5 μM ATP; apparent Ki (Morrison fit) converted by Cheng-Prusoff, Km of ATP 2.1 μM; read-out: EGFR(T790M/d746-750) Ki. The procedure, abridged: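 Caliper mobility-shift read-out, with product electrophoretically resolved from substrate and measured. Reactions were quenched with 80 mM EDTA after 30 min at 22 °C.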

The structures appear in SMILES notation. A value given as a limit tells only on which side of the number the result lay.

T3 sequence (P00533 with tags, fused parts or gaps DEL746-750/T790M limits assumed): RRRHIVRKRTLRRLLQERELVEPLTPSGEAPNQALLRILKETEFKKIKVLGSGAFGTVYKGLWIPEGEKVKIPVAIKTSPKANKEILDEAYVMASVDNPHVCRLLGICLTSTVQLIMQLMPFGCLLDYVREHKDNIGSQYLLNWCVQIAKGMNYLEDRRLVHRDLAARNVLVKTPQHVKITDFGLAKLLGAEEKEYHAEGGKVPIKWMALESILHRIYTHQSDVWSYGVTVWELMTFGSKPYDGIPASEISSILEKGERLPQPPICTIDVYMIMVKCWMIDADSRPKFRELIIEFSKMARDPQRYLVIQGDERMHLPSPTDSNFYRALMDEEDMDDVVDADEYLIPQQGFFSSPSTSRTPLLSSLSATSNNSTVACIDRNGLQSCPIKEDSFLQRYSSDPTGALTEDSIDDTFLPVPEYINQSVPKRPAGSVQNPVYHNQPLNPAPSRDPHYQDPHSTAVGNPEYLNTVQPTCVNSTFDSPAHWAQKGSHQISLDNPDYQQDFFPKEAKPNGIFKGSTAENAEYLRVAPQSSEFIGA
T2 sequence (P00533 25-1210 T790M/L858R): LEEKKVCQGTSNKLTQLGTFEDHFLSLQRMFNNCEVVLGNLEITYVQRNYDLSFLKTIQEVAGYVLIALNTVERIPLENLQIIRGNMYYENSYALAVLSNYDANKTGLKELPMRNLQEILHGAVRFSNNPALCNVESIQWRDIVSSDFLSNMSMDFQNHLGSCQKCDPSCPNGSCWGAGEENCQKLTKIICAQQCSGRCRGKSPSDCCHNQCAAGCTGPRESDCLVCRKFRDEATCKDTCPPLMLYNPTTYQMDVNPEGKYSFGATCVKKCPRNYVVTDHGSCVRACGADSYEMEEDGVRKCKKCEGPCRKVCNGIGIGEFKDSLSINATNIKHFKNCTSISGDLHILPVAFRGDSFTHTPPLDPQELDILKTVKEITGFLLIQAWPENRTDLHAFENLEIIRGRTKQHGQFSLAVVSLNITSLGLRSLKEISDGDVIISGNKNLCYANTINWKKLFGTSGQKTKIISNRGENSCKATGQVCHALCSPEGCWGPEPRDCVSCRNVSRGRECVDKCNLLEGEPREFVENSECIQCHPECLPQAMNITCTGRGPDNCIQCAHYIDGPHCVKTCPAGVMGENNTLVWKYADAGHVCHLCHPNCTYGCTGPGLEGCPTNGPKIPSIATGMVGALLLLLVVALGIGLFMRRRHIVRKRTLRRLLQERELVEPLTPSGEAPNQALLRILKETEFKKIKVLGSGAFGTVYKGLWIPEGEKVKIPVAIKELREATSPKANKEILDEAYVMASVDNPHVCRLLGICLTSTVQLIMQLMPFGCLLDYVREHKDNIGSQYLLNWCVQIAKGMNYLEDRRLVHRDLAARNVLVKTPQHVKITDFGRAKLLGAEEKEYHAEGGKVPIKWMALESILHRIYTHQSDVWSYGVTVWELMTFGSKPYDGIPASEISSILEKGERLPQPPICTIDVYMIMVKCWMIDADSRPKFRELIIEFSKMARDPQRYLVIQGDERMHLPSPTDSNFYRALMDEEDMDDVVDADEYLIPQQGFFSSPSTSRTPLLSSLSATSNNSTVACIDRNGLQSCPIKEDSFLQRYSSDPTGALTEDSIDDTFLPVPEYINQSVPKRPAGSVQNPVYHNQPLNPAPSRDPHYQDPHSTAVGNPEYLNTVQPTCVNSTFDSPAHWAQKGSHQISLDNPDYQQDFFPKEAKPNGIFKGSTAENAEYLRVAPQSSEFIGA
T1 sequence (P00533 25-1210 T790M/L858R): as above

Regarding `CC(C)n1nc(N2CC(C(=O)NCC(F)(F)F)C2)c2cnc(Nc3ccnc(-c4cnn(S(=O)(=O)C5CC5)c4)n3)cc21` [Example 165, 1-(6-(2-(1-(Cyclopropylsulfonyl)-1H-pyrazol-4-yl)pyrimidin-4-ylamino)-1-isopropyl-1H-pyrazolo[4,3-c]pyridin-3-yl)-N-(2,2,2-trifluoroethyl)azetidine-3-carboxamide], the concentration for a half-maximal effect (EC50) in assay [1] is 95.6 nM; in assay [2], 193 nM. Further, the Ki on EGFR T790M L858R and on EGFR del746-750 T790M was 1.9 nM in each case.
Regarding `CC(C)n1nc(N2CC(C(=O)N3CC[C@H](CO)C3)C2)c2cnc(Nc3ccnc(-c4cnn(S(=O)(=O)C5CC5)c4)n3)cc21` [Example 166, (S)-(1-(6-(2-(1-(cyclopropylsulfonyl)-1H-pyrazol-4-yl)pyrimidin-4-ylamino)-1-isopropyl-1H-pyrazolo[4,3-c]pyridin-3-yl)azetidin-3-yl)(3-(hydroxymethyl)pyrrolidin-1-yl)methanone], the figures for the EC50 in assay [1] and in assay [2] were 177 nM and 1160 nM, respectively. Moreover, the Ki at EGFR T790M L858R and at EGFR del746-750 T790M was 0.7 nM in each case.
Turning to `CC(C)n1nc(N2CC(C(=O)N3CC[C@@H](CO)C3)C2)c2cnc(Nc3ccnc(-c4cnn(S(=O)(=O)C5CC5)c4)n3)cc21` [Example 167, (R)-(1-(6-(2-(1-(cyclopropylsulfonyl)-1H-pyrazol-4-yl)pyrimidin-4-ylamino)-1-isopropyl-1H-pyrazolo[4,3-c]pyridin-3-yl)azetidin-3-yl)(3-(hydroxymethyl)pyrrolidin-1-yl)methanone], the EC50 was 189 nM in assay [1] and 1830 nM in assay [2]. Also, the Ki stood at 0.7 nM on EGFR T790M L858R and 0.5 nM on EGFR del746-750 T790M.
On the same counts, the results for `CC(C)n1nc(N2CC(C(=O)N3CC4CCC(C3)O4)C2)c2cnc(Nc3ccnc(-c4cnn(S(=O)(=O)C5CC5)c4)n3)cc21` [Example 168, 8-Oxa-3-azabicyclo[3.2.1]octan-3-yl(1-(6-(2-(1-(cyclopropylsulfonyl)-1H-pyrazol-4-yl)pyrimidin-4-ylamino)-1-isopropyl-1H-pyrazolo[4,3-c]pyridin-3-yl)azetidin-3-yl)methanone] are 25.5 nM, 283 nM, 1.5 nM and 1.2 nM.
On the same counts, the results for `CC(C)NC(=O)C1CN(c2nn(C(C)C)c3cc(Nc4ccnc(-c5cnn(S(=O)(=O)C6CC6)c5)n4)ncc23)C1` [Example 169, 1-(6-(2-(1-(Cyclopropylsulfonyl)-1H-pyrazol-4-yl)pyrimidin-4-ylamino)-1-isopropyl-1H-pyrazolo[4,3-c]pyridin-3-yl)-N-isopropylazetidine-3-carboxamide] are 34.2 nM, 825 nM, 1.4 nM and 1.2 nM.
In the same order, the values of `CC(C)n1nc(N2CC(C(=O)NC3CC(O)C3)C2)c2cnc(Nc3ccnc(-c4cnn(S(=O)(=O)C5CC5)c4)n3)cc21` (centres unmarked) [Example 170, 1-(6-(2-(1-(Cyclopropylsulfonyl)-1H-pyrazol-4-yl)pyrimidin-4-ylamino)-1-isopropyl-1H-pyrazolo[4,3-c]pyridin-3-yl)-N-(3-hydroxycyclobutyl)azetidine-3-carboxamide] are 731 nM, above 10000 nM, 1.4 nM and 1.2 nM.
For `CC(n1nc(N2CCNC2=O)c2cnc(Nc3ccnc(N4CCC(C)(O)CC4)n3)cc21)C(F)(F)F` (centres unmarked) [Example 171, 1-(6-(2-(4-Hydroxy-4-methylpiperidin-1-yl)pyrimidin-4-ylamino)-1-(1,1,1-trifluoropropan-2-yl)-1H-pyrazolo[4,3-c]pyridin-3-yl)imidazolidin-2-one], the half-maximal effective concentration (EC50) in assay [1] is 703 nM; in assay [2], 1070 nM. The Ki is 6.2 nM on EGFR T790M L858R and 33.1 nM at EGFR del746-750 T790M.
Turning to `CC(n1nc(N2CC3(COC3)C2)c2cnc(Nc3ccnc(-c4cnn(S(=O)(=O)C5CC5)c4)n3)cc21)C(F)(F)F` (centres unmarked) [Example 172, N-(2-(1-(Cyclopropylsulfonyl)-1H-pyrazol-4-yl)pyrimidin-4-yl)-3-(2-oxa-6-azaspiro[3.3]heptan-6-yl)-1-(1,1,1-trifluoropropan-2-yl)-1H-pyrazolo[4,3-c]pyridin-6-amine], the EC50 in assay [1] worked out at 154 nM; in assay [2], 699 nM. Moreover, the Ki came to 1.8 nM on EGFR T790M L858R and 2.5 nM on EGFR del746-750 T790M.
In the same order, the values of `CC(C)n1nc(NCC(F)(F)F)c2cnc(Nc3ccnc(-c4cnn(S(=O)(=O)C5CC5)c4)n3)cc21` [Example 181, N^6-(2-(1-(cyclopropylsulfonyl)-1H-pyrazol-4-yl)pyrimidin-4-yl)-1-isopropyl-N^3-(2,2,2-trifluoroethyl)-1H-pyrazolo[4,3-c]pyridine-3,6-diamine] are 3260 nM, above 10000 nM, 8.2 nM and 10.8 nM.
In the same order, the values of `CCC(C)n1nc(N2CCNC2=O)c2cnc(Nc3ccnc(N4CC[C@H](O)[C@H](F)C4)n3)cc21` (stereo partly drawn) [Example 195, 1-(1-(sec-Butyl)-6-((2-((3R,4S)-3-fluoro-4-hydroxypiperidin-1-yl)pyrimidin-4-yl)amino)-1H-pyrazolo[4,3-c]pyridin-3-yl)imidazolidin-2-one] are 44.9 nM, 208 nM, 1 nM and 3.1 nM.
On the same counts, the results for `CCC(C)n1nc(N2CC[C@@H](O)C2)c2cnc(Nc3ccnc(N4CC[C@H](O)[C@H](F)C4)n3)cc21` (stereo partly drawn) [Example 196, (3R,4S)-1-(4-((1-(sec-Butyl)-3-((R)-3-hydroxypyrrolidin-1-yl)-1H-pyrazolo[4,3-c]pyridin-6-yl)amino)pyrimidin-2-yl)-3-fluoropiperidin-4-ol] are 12.5 nM, 263 nM, 0.9 nM and 1.1 nM.
On to `CCC(C)n1nc(N2CCCC2=O)c2cnc(Nc3ccnc(N4CC[C@@H](O)[C@@H](F)C4)n3)cc21` (stereo partly drawn) [Example 200, 1-(1-(sec-Butyl)-6-((2-((3S,4R)-3-fluoro-4-hydroxypiperidin-1-yl)pyrimidin-4-yl)amino)-1H-pyrazolo[4,3-c]pyridin-3-yl)pyrrolidin-2-one], for which the 50% effective concentration (EC50) in assay [1] came to 75.4 nM; in assay [2] it was 300 nM. The Ki at EGFR T790M L858R came out at 1.2 nM; at EGFR del746-750 T790M, 2.6 nM.
On the same counts, the results for `CCC(C)n1nc(N2CC3(COC3)C2)c2cnc(Nc3ccnc(N4CCC(C)(O)CC4)n3)cc21` (centres unmarked) [Example 202, 1-(4-((1-(sec-Butyl)-3-(2-oxa-6-azaspiro[3.3]heptan-6-yl)-1H-pyrazolo[4,3-c]pyridin-6-yl)amino)pyrimidin-2-yl)-4-methylpiperidin-4-ol] are 141 nM, 881 nM, 2.8 nM and 4.8 nM.
With `CCC(C)n1nc(N2CC[C@@H](O)C2)c2cnc(Nc3ccnc(N4CCC(C)(O)CC4)n3)cc21` (stereo partly drawn) [Example 203, 1-(4-((1-(sec-Butyl)-3-((R)-3-hydroxypyrrolidin-1-yl)-1H-pyrazolo[4,3-c]pyridin-6-yl)amino)pyrimidin-2-yl)-4-methylpiperidin-4-ol], the EC50 was 77 nM in assay [1] and 619 nM in assay [2]. The Ki at EGFR T790M L858R came to 1.5 nM; on EGFR del746-750 T790M it was 2.1 nM.

The record behind these values is US9951064B2, “Azaindazole compounds as inhibitors of T790M containing EGFR mutants” (Genentech, Inc., priority 2013, dated 2018).
